Experimental data reported in PMC10673058, “In Silico and In Vitro Search for Dual Inhibitors of the Trypanosoma brucei and Leishmania major Pteridine Reductase 1 and Dihydrofolate Reductase” (Molecules, 2023).
Read-outs that look alike come from different tables or passages of the source.

Tests used:
LmDHFR = biological target: T1, LmDHFR (Leishmania major, UniProt P07382); assay: Spectrophotometric enzyme inhibition assay, recombinant LmDHFR; format: biochemical
T1 construct: The DNA fragment encoding LmDHFR was amplified by Phusion DNA polymerase; His6 (N); made in house; host or cells: E. coli BL21(DE3), vector pET 11D::LmDHFRHis
T1 sequence (P07382 26-229 limits assumed): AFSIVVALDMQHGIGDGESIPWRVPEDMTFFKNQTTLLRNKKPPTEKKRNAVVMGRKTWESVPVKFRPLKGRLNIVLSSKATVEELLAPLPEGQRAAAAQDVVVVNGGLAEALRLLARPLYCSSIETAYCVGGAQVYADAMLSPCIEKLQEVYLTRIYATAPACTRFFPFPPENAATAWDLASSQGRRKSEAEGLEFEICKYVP
Procedure: (§1) Based on the in vitro assays against TbPTR1 and LmPTR1 performed in the previous works of our group, as well as the in silico results obtained from the current study, a total of 47 natural products were tested against the target enzymes. […] The concentration-effect curves for the IC50 and EC50 values that were obtained in the present study are depicted in Supplementary Materials Figures S21–S42.
The TbDHFR concentration was measured to be 0.04 mg/mL and a specific activity of 38.1 U/mg was calculated. The concentration of LmDHFR was 0.05 mg/mL with a specific activity of 56.2 U/mg. All measurements were carried out using the saturating concentrations for dihydrofolate (50 μM) and NADPH (150 μM) in Buffer C (50 mM Tris/HCl (pH 7.6), 250 mM NaCl, 10 mM BME). The saturating conditions for TbDHFR and LmDHFR were determined using the diagrams depicted in Figures S17 and S19 in the Supplementary Materials.
(§2) The inhibitory effect of the selected natural products was investigated by testing the DMSO solution of each compound at a constant concentration of 100 μM for TbPTR1 and 50 μM for LmPTR1, TbDHFR, and LmDHFR, as well as hDHFR. The concentrations of the cofactor and substrates were set at the previously determined saturating conditions (Section 4.2.5). Each test compound was incubated for 20 min with the respective enzyme and NADPH to ensure a sufficient interaction time before the reaction was induced by the addition of the substrate. The enzymatic activity was determined in duplicates and correlated with a reference that contained just DMSO, instead of an inhibitor. The enzymatic activity of the reference was normalized to 100%.
(§3) The half-maximal inhibitory concentration (IC50) of the natural products was determined in triplicate, using at least five different inhibitor concentrations against a reference containing no inhibitor. The enzymatic activity was documented and analyzed and the IC50 value was determined by nonlinear regression using GraphPad Prism 9 (GraphPad Software Inc., La Jolla, CA, USA).

hDHFR = biological target: T2, hDHFR (Homo sapiens, UniProt P00374); assay: Spectrophotometric enzyme inhibition assay, recombinant hDHFR (selectivity); format: biochemical; conditions: for EC50: read-out: EC50 hDHFR (footnote a); for inhibition at 50 µM: set compound concentration of 50 μM, read-out: relative inhibition of hDHFR
T2 construct: His; host or cells: E. coli BL21 (DE3), vector pET 15b::hDHFRHis
T2 sequence (P00374 1-187): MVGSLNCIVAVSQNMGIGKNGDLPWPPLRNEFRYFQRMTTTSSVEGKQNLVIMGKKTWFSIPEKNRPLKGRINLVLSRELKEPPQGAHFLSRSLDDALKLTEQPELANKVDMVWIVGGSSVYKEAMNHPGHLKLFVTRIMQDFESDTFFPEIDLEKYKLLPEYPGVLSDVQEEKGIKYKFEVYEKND
Procedure: For 15 compounds, there was enough substance available to be tested in selectivity studies against hDHFR.
The used hDHFR concentration was 0.64 mg/mL, with a specific activity of 0.62 U/mg. All measurements were carried out using the saturating concentrations for dihydrofolate (100 μM) and NADPH (50 μM) in Buffer C (50 mM Tris/HCl (pH 7.6), 250 mM NaCl, 10 mM BME). The saturating conditions for hDHFR were determined using the diagrams depicted in Figure S20 in the Supplementary Materials.
as §2, §3

TbPTR1 [1] = biological target: T3, TbPTR1 (Trypanosoma brucei brucei, UniProt O76290)
T3 construct: His6 (N); made in house; host or cells: E. coli BL21 (DE3), vector pET 15b::TbPTR1His (strain from the group of M. Paola Costi, Modena)
T3 sequence (O76290 1-268): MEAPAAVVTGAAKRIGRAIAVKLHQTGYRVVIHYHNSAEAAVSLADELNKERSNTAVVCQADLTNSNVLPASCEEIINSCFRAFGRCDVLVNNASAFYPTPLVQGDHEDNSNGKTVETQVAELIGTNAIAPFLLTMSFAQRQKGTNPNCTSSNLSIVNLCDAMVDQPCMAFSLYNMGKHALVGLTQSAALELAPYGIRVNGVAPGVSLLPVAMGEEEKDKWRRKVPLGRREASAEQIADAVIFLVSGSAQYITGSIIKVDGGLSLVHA

TbPTR1 [2] = biological target: T3, TbPTR1; assay: Spectrophotometric enzyme inhibition assay, recombinant TbPTR1; format: biochemical
Procedure: as §1
(§4) The used TbPTR1 concentration was 3.23 mg/mL, with a specific activity of 0.03 U/mg. The measurements were carried out using the enzyme’s individual saturating concentrations for folic acid (8 μM) and NADPH (150 μM) in Buffer A (50 mM Tris/HCl (pH 7.6), 250 mM NaCl). For LmPTR1, the protein concentration was 5.02 mg/mL and the specific activity was calculated to be 0.29 U/mg. Buffer B (50 mM NaH2PO4 (pH 6.0), 100 mM NaCl) was used for all LmPTR1 measurements and the saturating concentrations amounted to 50 μM of folic acid and 200 μM of NADPH. The saturating conditions of the PTR1 enzymes were determined using the diagrams depicted in Figures S16 and S18 in the Supplementary Materials.
as §2, §3

TbDHFR = biological target: T4, TbDHFR (Trypanosoma brucei brucei, UniProt Q27783); assay: Spectrophotometric enzyme inhibition assay, recombinant TbDHFR; format: biochemical
T4 construct: pET 11D::TbDHFRHis vector design for the recombinant overexpression of TbDHFR in E. coli; His; made in house; host or cells: E. coli BL21(DE3), vector pET 11D::TbDHFRHis
Procedure: Based on the in vitro assays against TbPTR1 and LmPTR1 performed in the previous works of our group, as well as the in silico results obtained from the current study, a total of 47 natural products were tested against the target enzymes.
The saturating conditions for TbDHFR and LmDHFR were determined using the diagrams depicted in Figures S17 and S19 in the Supplementary Materials.
as §2, §3

T. brucei [3] = system: T. brucei; parameters: method as in PMID 27077842; conditions: read-out: IC50 antitrypanosomal activity in T. brucei cell assays; cited from earlier work
LmPTR1 [4] = biological target: T5, LmPTR1 (Leishmania major, UniProt Q01782); assay: Spectrophotometric enzyme inhibition assay, recombinant LmPTR1; format: biochemical; conditions: for IC50: read-out: IC50 LmPTR1
T5 construct: His6 (N); made in house; host or cells: E. coli BL21 (DE3), vector pET 15b::LmPTR1His (strain from the group of M. Paola Costi, Modena)
T5 sequence (Q01782 1-288): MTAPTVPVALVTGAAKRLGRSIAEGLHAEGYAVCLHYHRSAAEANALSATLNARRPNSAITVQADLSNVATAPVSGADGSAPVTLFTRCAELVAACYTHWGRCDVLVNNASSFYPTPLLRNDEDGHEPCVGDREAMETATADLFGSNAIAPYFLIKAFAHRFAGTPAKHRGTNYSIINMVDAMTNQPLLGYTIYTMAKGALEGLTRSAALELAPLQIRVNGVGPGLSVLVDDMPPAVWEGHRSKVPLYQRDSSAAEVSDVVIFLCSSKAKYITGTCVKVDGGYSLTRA
Procedure: as §1, §4, §2, §3

TbPTR1 [5] = biological target: T3, TbPTR1; assay: Dilution assay for reversible/irreversible inhibition of TbPTR1; format: biochemical; conditions: inhibitor concentration near IC50
Excerpt: The catalytic center of TbPTR1 contains a cysteine residue (TbCys168) in close proximity to the substrate/inhibitor binding site. In our previous publication, we mentioned the possibility that Sesquiterpene Lactones 1 and 2 might interact as Michael acceptors with TbCys168 by covalent bond formation with its thiol group. Therefore, we have now subjected a selection of natural product inhibitors containing Michael acceptors (1, 2, 5, 17) to initial testing for irreversible inhibition, according to the dilution method described by Bisswanger (see Section 4.2.9).
In this method, the enzyme activity of the respective enzyme-inhibitor mixture is measured before and after a defined dilution (in this study, 1:2). In the absence of an inhibitor, dilution decreases the enzyme activity proportionally to the dilution factor. […] A reversible inhibitor, on the other hand, will dissociate upon dilution, resulting in a weaker decrease in activity than what corresponds to the dilution effect. In the presence of Inhibitors 1 and 2, the decrease in TbPTR1 activity upon the 1:2 dilution was almost proportional to the dilution factor, i.e., only 9.5% and 6.8% activity, respectively, were recovered compared to the reference. This would indeed support an irreversible mechanism of inhibition. […] However, further investigations on these compounds’ mechanisms of inhibition are under way.
To assign an either reversible or irreversible inhibition mechanism to selected compounds, the enzymatic activity of an enzyme-inhibitor mixture was determined before and after a defined dilution, using the reaction conditions described in Section 4.2.5 [16].
Two equivalent solutions with the respective enzyme and inhibitor combination were prepared, one of them being diluted with buffer in a 1:2 ratio shortly before the reaction was started by adding the substrate. The respective inhibitor concentration was set near the IC50 value. The substrate and cofactor concentrations were kept constant in both reaction mixtures. All measurements were carried out in duplicates against a reference containing DMSO instead of the inhibitor. […] If a reversible inhibitor was present, a higher degree of activity recovery (>>10%) could be observed than what corresponds to the dilution factor due to the partial dissociation of the inhibitor from the enzyme upon dilution. The percentual changes in the enzymatic activity of the undiluted and diluted test solution were compared and evaluated to decide the mechanism of inhibition.

T. brucei [6] = conditions: read-out: EC50 in vitro against T. brucei; cited from earlier work
L. major = conditions: read-out: EC50 against L. major; cited from earlier work
LmPTR1 [7] = biological target: T5, LmPTR1; parameters: method as in PMID 29211037

T4 sequence (Q27783 28-238 limits assumed): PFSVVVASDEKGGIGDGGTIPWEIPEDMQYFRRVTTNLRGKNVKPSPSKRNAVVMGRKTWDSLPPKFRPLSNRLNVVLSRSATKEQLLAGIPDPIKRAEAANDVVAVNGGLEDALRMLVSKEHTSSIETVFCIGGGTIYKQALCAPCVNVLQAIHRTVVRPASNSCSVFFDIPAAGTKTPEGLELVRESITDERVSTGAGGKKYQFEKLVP

SMILES | IC50 (hDHFR) [µM] | inhibition at 50 µM (hDHFR) [%] | IC50 (TbPTR1 [2]; read-out: IC50 TbPTR1) [µM] | IC50 (TbDHFR; read-out: IC50 TbDHFR) [µM] | IC50 (LmPTR1 [4]) [µM] | TbPTR1 activity recovered upon 1:2 dilution compared to the reference (TbPTR1 [5]) [%] | further results
CC(C)=CCc1c(O)cc2oc3cc(O)c(O)c(CCC(C)(C)O)c3c(=O)c2c1O [Compound 6, garcinone c] | 1.7 | > 50 | – | – | – | – | IC50 (LmDHFR; read-out: IC50 LmDHFR): 3 µM; EC50 (hDHFR): 1.7 µM; IC50 (TbPTR1 [1]; from previous study; read-out: IC50 TbPTR1; cited from earlier work): > 100 µM
C=C(C)[C@H](CC=C(C)C)Cc1c(O)cc(O)c2c1O[C@H](c1ccc(O)cc1O)CC2=O [Compound 9, sophoraflavanone G] | – | > 50 | 31.8 | 9.4 | – | – | IC50 (LmDHFR; read-out: IC50 LmDHFR): 14 µM; EC50 (hDHFR): 31.6 µM; IC50 (T. brucei [3]): 1.4 µM
COc1cc(/C=C/C(=O)CC(=O)/C=C/c2ccc(O)c(OC)c2)ccc1O [Compound 5, curcumin] | 33.9 | > 50 | 18.5 | – | > 50 | 16.6 | EC50 (T. brucei [6]): 2.5 µM; EC50 (L. major): 33 µM
O=C(OC1Cc2c(O)cc(O)cc2OC1c1ccc(O)c(O)c1)c1cc(O)c(O)c(O)c1 (single isomer, unassigned; (-)) [Compound 3, (−)-catchin-3-gallate] | 4.2 | > 50 | – | – | – | – | IC50 (LmDHFR): 0.6 µM; IC50 (TbPTR1 [1]; read-out: IC50 TbPTR1; from previous study; cited from earlier work): > 100 µM; IC50 (LmPTR1 [7]; read-out: IC50 LmPTR1; from previous study; cited from earlier work): 75.3 µM
C=C1C(=O)O[C@@H]2/C=C(\CO)CC/C=C(\C)C[C@H](OC(=O)C(=C)[C@H](O)CO)[C@@H]12 [Compound 1, cnicin] | > 50 | – | – | > 50 | > 50 | 9.5 | inhibitory effect against LmPTR1 (LmPTR1 [4]): No relevant inhibitory effect; inhibition of hDHFR (hDHFR): no relevant inhibition; EC50 (TbPTR1 [1]; EC50 value; from previous study; read-out: EC50 TbPTR1 (footnote a); cited from earlier work): 12.2 µM
O=C(/C=C/CCc1ccc(O)c(O)c1)CCc1ccc(O)c(O)c1 [Compound 17, dehydrohirsutanone] | 40.7 | > 50 | 8.3 | 17.7 | > 50 | 12.8 | EC50 (T. brucei [6]): 2.5 µM; EC50 (L. major): > 100 µM
O=C(/C=C/c1ccc(O)c(O)c1/C=C/c1ccc(O)c(O)c1)O[C@H](Cc1ccc(O)c(O)c1)C(=O)O [Compound 8, salvianolic acid A] | > 50 | – | 85.1 | – | – | – | IC50 (TbDHFR): 2.5 µM; EC50 (LmDHFR): 18.7 µM; IC50 (T. brucei [3]): 3.1 µM
O=C(/C=C/c1ccc(O[C@@H]2O[C@H](CO)[C@@H](O)[C@H](O)[C@H]2O)cc1)c1ccc(O)cc1O [Compound 7, isoliquiritin] | > 50 | – | – | – | – | – | IC50 (TbPTR1 [2]): > 100 µM; IC50 (LmDHFR): 46.2 µM; IC50 (LmPTR1 [7]; from previous study; read-out: IC50 LmPTR1; cited from earlier work): 84.5 µM
